Measurements from patent publication US20230203098A1, “HUMAN TRANSFERRIN RECEPTOR BINDING PEPTIDE” (priority 2020, published 2023).
Each block holds one compound with its values, some of them ahead of it. *1 amine or outer side, *2 acyl side, *3 side chain or, on linkers, in order; H or OH if unused. Bridges are numbered along the chain shown (N, C = ends). Where no end group is shown, it is not given here. [ ]: non-standard residue; d: D form. Tyr(Me) = COc1ccc(C[C@H](N[*:1])C(=O)[*:2])cc1; NMePhe(3-Cl) = CN[C@@H](Cc1cccc(Cl)c1)C(=O)O; NMeW = CN[C@@H](Cc1c[nH]c2ccccc12)C(=O)O; NMeY = CN[C@@H](Cc1ccc(O)cc1)C(=O)O; Aib = CC(C)(N)C(=O)O

Tests used:
[1] = test system: Human breast cancer cells BT-549; assay: Migration of 5-FAM peptide conjugates into human breast cancer cells BT-549 (fluorescence microscopy); assay type: cell-based; conditions: BT-549 cells, sample diluted to 100 nmol/L, 37° C., 3 hours
Procedure: Culturing was performed under conditions of 37° C. and 5% CO2.
Collagen Type I (Corning) was diluted to 50 µg/mL with 20 mmol/L acetic acid. A sterilized cover glass was placed in each well of the 24-well plate. After the diluted Collagen Type I solution was added to the plate, the plate was incubated at 37° C. for 1 hour. The Collagen Type I solution was removed from the plate and the plate was washed 3 times with PBS. The human breast cancer cells BT-549 were inoculated in an amount of 1 × 10^5 cells per 1 well and cultured overnight under conditions of 37° C. and 5% CO2.
The sample was diluted with the dilution medium to 100 nmol/L.
The sample solution was removed from the 24-well plate, and the BT-549 cells were washed three times with PBS. 4% paraformaldehyde phosphate buffer (FUJIFILM Wako Pure Chemical Corporation) was added at 500 µL/well, and the cells were allowed to stand at room temperature for 15 minutes and then washed three times with PBS. Further, Hoechst 33342 (Thermo Fisher Scientific) diluted with PBS to 2 µg/mL was added at 500 µL/well, and the cells were allowed to stand at room temperature under shading for 10 minutes and then washed three times with PBS. The cover glass was removed from the 24-well plate, and the cells were enclosed on a slide glass using fluorescent mounting medium (Agilent Technologies) and allowed to stand at room temperature under shading overnight. For the observation, an inverted fluorescence microscope DMI6000B (Leica Microsystems) was used, and the observation was performed at the wavelength for detecting FITC and DAPI. The scale bar in the figures indicates 50 µm.

[2] = target: transferrin receptor (hTfR) (Homo sapiens, UniProt P02786); assay: Intermolecular interaction evaluation test between transferrin receptor (hTfR) and peptide by surface plasmon resonance (SPR); assay type: binding; conditions: SPR, result in words
How it was run: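 hTfR captured on Ni-NTA chip then amine-coupled; peptides run single-cycle kinetics at 5–100 nM in 10 mM HEPES pH 8.0, 150 mM NaCl, 0.05% Tween 20, 0.1% BSA, 1.0% DMSO. KD from least-squares curve fitting of sensorgrams.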

hTfR-KI mice = assay: Mouse brain localization confirmation test with FITC conjugate (immunohistochemical staining, single and multiple dose); assay type: in vivo; conditions: multiple dose test, 3.7 mg/kg every 10 minutes, 6 times
Procedure: In the same manner as in Example 5, the conjugate of the hTfR-binding special cyclic peptide No. 894 and the fluorescent substance FITC was administered to the hTfR-KI mice. The dose was adjusted to 3.7 mg/kg.
One hour after administration, the mice were anesthetized with isoflurane and subjected to a blood removal treatment by running normal saline from the left ventricle for 4 to 5 minutes. After that, the brain was collected for measuring the fluorescence intensity and stored in normal saline to prevent drying. This brain tissue was subjected to immunohistochemical staining using an anti-FITC antibody (MBL Life Science). The immunohistochemical staining in the brain tissue using the anti-FITC antibody was performed with a publicly known method and the staining was observed using a fluorescence microscope. Note that in the figure, red arrows indicate the cerebral capillaries and arrowheads indicate the Purkinje cells.
The localization of the above-mentioned conjugate in the brain tissue was confirmed by the immunohistochemical staining. Note that, in the figure, red arrows indicate the cerebral capillaries, arrowheads indicate the Purkinje cells, and yellow arrows indicate dendrites.

TfR-KI mice = conditions: mouse, in vivo
Procedure: hTfRNo.894-vivotag750 conjugate administration liquid (No. 894 administration liquid) : 4.8 µL of dimethyl sulfoxide (DMSO, Sigma Aldrich) was added to 6 µL of a 5 mM solution of the hTfRNo.894-vivotag750 conjugate synthesized in Example 2, 66 µL of the 20% hydroxypropyl-β-cyclodextrin solution was further added, and the mixture was mixed well. To this, 48 µL of polyethylene glycol 400 was further added and mixed to prepare a No. 894-administration liquid. […] The offspring (chimeric mice) thus obtained were determined by hair color, and individuals in which the ES cells contributed to the development of the organism at a higher rate, that is, individuals having a higher proportion of white hairs relative to their total body hairs, were selected. […] White-colored F1 mice were selected, DNA was extracted from their tail tissues and analyzed, and the mice in which the mouse transferrin receptor gene on the chromosome had been heterologously replaced with the chimeric hTfR were selected as the TfR-KI mice. […] After this, tissues for measuring fluorescence intensity (brain, heart, lung, liver, spleen, kidney, quadriceps femoris muscle, thymus, thoracic vertebrae, and femur) were collected and stored in normal saline to prevent drying. […]

Sequence of transferrin receptor (hTfR) (P02786 whole entry): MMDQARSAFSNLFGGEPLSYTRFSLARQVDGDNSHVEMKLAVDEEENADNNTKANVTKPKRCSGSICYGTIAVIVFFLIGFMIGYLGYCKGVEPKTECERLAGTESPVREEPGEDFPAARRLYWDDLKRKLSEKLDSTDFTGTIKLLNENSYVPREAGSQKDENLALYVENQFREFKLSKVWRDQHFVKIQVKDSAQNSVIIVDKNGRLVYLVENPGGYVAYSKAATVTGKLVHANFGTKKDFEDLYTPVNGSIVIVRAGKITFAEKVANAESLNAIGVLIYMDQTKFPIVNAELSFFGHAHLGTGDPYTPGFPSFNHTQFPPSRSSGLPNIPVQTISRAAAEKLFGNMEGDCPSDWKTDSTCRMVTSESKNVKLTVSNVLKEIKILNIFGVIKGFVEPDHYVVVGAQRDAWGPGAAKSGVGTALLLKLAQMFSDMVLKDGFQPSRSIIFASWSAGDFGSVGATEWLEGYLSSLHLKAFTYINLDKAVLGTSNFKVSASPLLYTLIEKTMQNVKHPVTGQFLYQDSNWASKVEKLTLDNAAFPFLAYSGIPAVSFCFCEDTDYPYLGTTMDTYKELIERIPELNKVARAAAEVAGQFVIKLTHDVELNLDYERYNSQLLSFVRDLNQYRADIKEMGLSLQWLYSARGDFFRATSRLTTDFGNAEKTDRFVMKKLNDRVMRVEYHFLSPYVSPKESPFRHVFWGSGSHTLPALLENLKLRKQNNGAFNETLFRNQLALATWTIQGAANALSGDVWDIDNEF

- hTfR binding ability [2]: no binding to hTfR was observed
Compound: Patent ID 449: negative control, 5-FAM labelled conjugate of Flip894_variant61_PEG4, a peptide without binding ability to hTfR ({CH2CO}-A[NMeY]F[dR][Aib]IY[Tyr(Me)]YN[NMeW]V[NMePhe(3-Cl)]VC; thioether N-15; not fully specified (C-terminus); also: methylation at Y2 and W11, type not given here) [reference compound]
- migration into the cells [1]: did not migrate into the cells

Compound: CC[C@H](C)[C@@H]1NC(=O)[C@H](Cc2ccc(O)cc2)NC(=O)[C@H](Cc2ccc(O)cc2)NC(=O)[C@H](CC(N)=O)NC(=O)[C@H](Cc2c[nH]c3ccccc23)NC(=O)[C@H](C(C)C)NC(=O)[C@H](Cc2ccccc2)NC(=O)[C@H](C(C)C)NC(=O)[C@H](C)NC(=O)CSC[C@@H](C(=O)NCCOCCOCCOCCOCCOCCOCCOCCOCCOCCOCCOCCOCCC(=O)N[C@@H](CCCCNC(=O)c2ccc(-c3c4ccc(=O)cc-4oc4cc(O)ccc34)c(C(=O)O)c2)C(N)=O)NC(=O)[C@H](Cc2ccc(O)cc2)N(C)C(=O)[C@H](Cc2ccc(O)cc2)NC(=O)[C@H](CCCNC(=N)N)NC(=O)[C@H](CCCNC(=N)N)NC(=O)[C@H]([C@@H](C)CC)NC1=O
- localization in the brain tissue (hTfR-KI mice): reached as far as neurons such as the Purkinje cells

- migration into the brain through the BBB (TfR-KI mice): migrated into the brain through the BBB
Compound: CC[C@H](C)[C@@H]1NC(=O)[C@H](Cc2ccc(O)cc2)NC(=O)[C@H](Cc2ccc(O)cc2)NC(=O)[C@H](CC(N)=O)NC(=O)[C@H](Cc2c[nH]c3ccccc23)NC(=O)[C@H](C(C)C)NC(=O)[C@H](Cc2ccccc2)NC(=O)[C@H](C(C)C)NC(=O)[C@H](C)NC(=O)CSC[C@@H](C(N)=O)NC(=O)[C@H](Cc2ccc(O)cc2)N(C)C(=O)[C@H](Cc2ccc(O)cc2)NC(=O)[C@H](CCCNC(=N)N)NC(=O)[C@H](CCCNC(=N)N)NC(=O)[C@H]([C@@H](C)CC)NC1=O [hTfR No. 894]
- migration to tissues (TfR-KI mice): also migrated to each tissue, mainly muscle tissues
